From patent publication US20220195384A1, “COMPOSITION FOR PROMOTING PRODUCTION OF STEM CELL-DERIVED EXOSOMES AND INCREASING STEMNESS” (BREXOGEN INC., priority 2019, published 2022)

How the values were obtained:
Type in all cases: cell-based
Settings in all cases: 10 ng/mL interferon-γ pretreatment one week
[1] = tested on: primary umbilical cord-derived mesenchymal stem cells; experiment: Number of exosomes by nanoparticle tracking assay (NanoSight NS300)
Method: (§1) In a culture medium [high glucose DMEM (Gibco, Cat no. 11995-065); 10% fetal bovine serum (HyClone), 1% MEM non-essential amino acids solution (100×) (Gibco, Cat no. 11140-050)] containing 20 nM of exendin-4, primary umbilical cord-derived mesenchymal stem cells (ATCC No. PCS-500-010; Lot No. 63822428) were cultured for one week.
(§2) After completion of culturing, the mesenchymal stem cells pretreated with exendin-4 were washed and additionally cultured for 72 hours in a culture medium supplemented with 10% fetal bovine serum (FBS) free of exosomes. The reason of employing exosome-free FBS was to prevent FBS-derived exosomes other than those secreted from the cells from being incorporated because generally used FBS contained a large amount of exosomes derived from bovine serum.
(§3) After 72 hours of culturing, the culture medium in which the pretreated mesenchymal stem cells were cultured was taken and centrifuged at 300×g for 10 min to remove residual cells and cell debris. The supernatant was filtered through a 0.22 μm filter, followed by centrifugation at 10,000×g and 4° C. for 70 min in a high-speed centrifuge. The supernatant thus obtained was subjected again to ultracentrifugation at 100,000×g and 4° C. for 90 min. The exosomes obtained as a pellet were diluted in PBS (phosphate buffered saline) before use in the following experiments.
as §1, with “10” for “20”, “PMA,” for “exendin-4,”
as §2, with “PMA” for “exendin-4”
as §1, with “10 ng/mL interferon-γ,” for “20 nM of exendin-4,”
as §2, with “interferon-γ” for “exendin-4”
as §1, with “10 μM” for “20 nM”, “tetrandrine,” for “exendin-4,”
as §2, with “tetrandrine” for “exendin-4”, “serum. […]” for “serum.”

[2] = tested on: primary umbilical cord-derived mesenchymal stem cells; experiment: Content of exosomal protein (Bradford analysis, 595 nm)
Method: as §1, §2, §3
as §1, with “10” for “20”, “PMA,” for “exendin-4,”
as §2, with “PMA” for “exendin-4”
as §1, with “10 ng/mL interferon-γ,” for “20 nM of exendin-4,”
as §2, with “interferon-γ” for “exendin-4”
as §1, with “10 μM” for “20 nM”, “tetrandrine,” for “exendin-4,”
as §2, with “tetrandrine” for “exendin-4”, “serum. […]” for “serum.”

[3] = tested on: primary umbilical cord-derived mesenchymal stem cells; experiment: Content of exosomal RNA (NanoDrop)
Method: as §1, §2, §3
as §1, with “10” for “20”, “PMA,” for “exendin-4,”
as §2, with “PMA” for “exendin-4”
as §1, with “10 ng/mL interferon-γ,” for “20 nM of exendin-4,”
as §2, with “interferon-γ” for “exendin-4”
as §1, with “10 μM” for “20 nM”, “tetrandrine,” for “exendin-4,”
as §2, with “tetrandrine” for “exendin-4”, “serum. […]” for “serum.”

Q: What does the source list for “interferon-γ [IFNγ MSC-Exo = exosomes of IFNγ-treated mesenchymal stem cells]”?
A: fold more exosomes than non-treated mesenchymal stem cells [1]: about 6.7 fold; No. of exosome particles, yield per 10^6 cells ([1]; then 72 h exosome-free FBS medium, non-treated 2.3): 15.4 10^9; fold greater exosomal proteins than non-treated mesenchymal stem cells [2]: about 6.2 fold; Exosomal protein, yield per 10^6 cells ([2]; then 72 h exosome-free FBS medium, non-treated 2.0): 12.4 ug; fold greater exosomal RNA than non-treated mesenchymal stem cells [3]: about 5.0 fold; Exosomal RNA, yield per 10^6 cells ([3]; then 72 h exosome-free FBS medium, non-treated 31.0): 155.0 ng
